Measurements: a melting point compilation (Tetko et al.; mined from patent text by program, amines drawn as free bases though some values may be those of a salt)

Row | Compound | melting point
1 | N#Cc1ncc(Sc2ccccc2)nc1C#N | 109 to 112 °C
2 | O=C1COc2c1ccc1ccccc21 | 191 to 192 °C
3 | COc1ccc(S(=O)(=O)Nc2cccnc2Nc2ccc(OC(=O)c3ccccc3)cc2)cc1 | 208 to 210 °C
4 | C=CCN1C2CCC1C1CCC2N1C(c1ccc(C(=O)N(C)C)cc1)c1cccc(O)c1 (centres undefined) | 99 to 101 °C
5 | CCOC(=O)c1noc([C@@H](Cc2ccc3ccccc3c2)N(C)C(=O)OC(C)(C)C)n1 | 99 to 102 °C
6 | Clc1ccc2c(c1)C(c1ccccc1)=NCc1nnc(CNCC3CC3)n1-2 | 154 to 157 °C
7 | O=[N+]([O-])c1cnc2c(F)c(Cl)c(F)cc2c1 | 174 °C
8 | CC(=O)c1noc2cc(OCc3cccc(C(F)(F)F)c3)ccc12 | 130 to 132 °C
9 | O=C1c2nccc(Cl)c2C(=O)c2c(-c3ccccc3NC(=O)C(F)(F)F)ccnc21 | 152 °C
10 | ClCOc1ccc(-c2ccccc2)cc1 | 67 to 70 °C
11 | COc1ccc2c(N)cccc2c1C(F)(F)F | 120 °C
12 | CN(C)C1CCCN(C(=O)c2n[nH]c3ccccc23)C1 (centres undefined) | 141 to 142 °C
13 | CCOC(CBr)(OCC)c1ccc(OC)cc1 | 55 to 56 °C
14 | C=CCNc1nc(NC(=O)C(C)(C)C)c2scc(C)c2n1 | 88 to 89 °C
15 | CCNC1CCN(c2c(F)cc3c(=O)c(C(=O)O)cn(C4CC4)c3c2C)CC1(C)C (centres undefined) | 201 to 203 °C
16 | CC(=O)c1ccc2c(c1)CCc1ccc(C(=O)O)cc1S2(=O)=O | 219 to 221 °C
17 | COC(=O)CCCCOc1ccc2nc3[nH]c(=O)[nH]c3cc2c1 | 281 to 282 °C
18 | CCOC(=O)c1cccc(-c2ccc3ccccc3c2)c1 | 101 to 103 °C
19 | COc1cc(OC)c2ncn(/C=C/C(=O)O)c(=O)c2c1 | 305 to 307 °C
20 | C/C(O)=C(\C#N)C(=O)Sc1ccc(Cl)cc1 | 91 to 94 °C
21 | CCN1CC(=O)Nc2cc(Nc3ncc(Cl)c(Nc4ccccc4S(=O)(=O)C(C)C)n3)c(OC)cc2C1 | 175 °C
22 | CC(C)(C)OC(=O)N1CCC(c2ccc(Nc3nc4c(-c5ccc(F)cc5)cccn4n3)cc2)CC1 | 88 to 91 °C
23 | CCON=C(C)C1CCC(=O)CC1=O (centres undefined) | 105 to 112 °C
24 | C[N+]([O-])=C(Cn1cncn1)c1ccccc1 | 117 to 119 °C
25 | Cc1nnc2c(Cl)nc3ccccc3n12 | 215 to 222 °C
26 | COC(=N[N+](=O)[O-])NCc1ccc(Cl)nc1 | 112 to 113 °C
27 | COc1cc(C=O)c([N+](=O)[O-])cc1OCCCCCCOC(C)=O | 79.8 to 81.5 °C

Row | Compound | melting point
28 | O=c1ccoc2cc(O)ccc12 | 136 to 137 °C
29 | CS(=O)(=O)Nc1ccc(-c2cn3cccnc3n2)cc1Sc1ccc(F)cc1F | 219 to 220 °C
30 | Cc1ccc(C(=O)c2cccc3c2CCCC3C(=O)O)cc1 (centres undefined) | 102 to 103 °C
31 | CCOC(=O)C=Cc1cc([N+](=O)[O-])ccc1Cl | 138 to 140 °C
32 | CCCCCCCCCC(=O)OC1CCC2(CC(=O)N(CCCCN3CCN(c4nsc5ccccc45)CC3)C(=O)C2)C1 (centres undefined) | 117 to 119 °C
33 | CCS(=O)(=O)Nc1ccc(F)c(N)c1 | 106 to 108 °C
34 | CC1C(=O)c2cc(NS(C)(=O)=O)ccc2OC12CCN(CCc1ccccn1)CC2 (centres undefined) | 210 to 211 °C
35 | CNC(=O)On1c(C(F)(F)F)nc2nc(Br)c(Cl)c(Br)c21 | 216 °C
36 | NCCCCC(OP(=O)(O)CCCCc1ccc(F)cc1)C(=O)N1CCCC1C(=O)O (centres undefined) | 178 to 185 °C
37 | CCCc1nc2c(N)nc(C)c(C)c2n1CCCCCS(=O)(=O)c1ccccc1 | 134 to 136 °C
38 | O=C(O)c1ccc2[nH]cc(-c3cc4cccnc4[nH]3)c2c1 | > 300 °C
39 | COc1cccc2c1nc(-c1c(F)cccc1F)n2CC=C(C)C | 101 to 103 °C
40 | O=C(NC(C(=O)O)c1ccsc1)OCc1ccccc1 (centres undefined) | 115 to 117 °C
41 | CC(C)C(C)(C(=O)NCCc1ccccn1)C(C)C | 60 to 61 °C
42 | Brc1cccc(OCc2ccc3ccccc3c2)c1 | 109 to 112 °C
43 | CCOC(=O)c1nccn1C1C(=O)c2ccccc2N1C(C)=O (centres undefined) | 210 °C
44 | CCc1cc(OC)c(C=C(C)[N+](=O)[O-])cc1OC | 63 to 64 °C
45 | CNC(=S)NCCCSCc1c[nH]cn1 | 118 to 120 °C
46 | CCc1n[nH]c2c(=O)[nH]c(-c3cc(S(C)(=O)=O)ccc3OCc3ccccn3)nc12 | 283 to 286 °C
47 | CC(C)(C)OC(=O)N1CC2C(CCC3(C)C(C(=O)O)CCC23)C2(C)CCC(=O)C=C12 (centres undefined) | 215 to 216 °C
48 | CC(C)(C)C1(COc2ccc(Cl)cc2)OS(=O)NC1=O (centres undefined) | 132 to 134 °C
49 | CCOC(=O)C(C)(C)OCc1cc2cc(C(F)(F)F)ccc2n1S(=O)(=O)c1ccccc1 | 62 to 64 °C
50 | Cc1cc2c(c3ccc(=O)[nH]c13)OC(CNC=O)C2 (single isomer, unassigned; (+)) | 282 to 284 °C
51 | COc1ccc(CNc2cc(N3CCCC3CO)ccc2C(=O)NCc2ncccn2)cc1Cl (centres undefined) | 102 to 107 °C
52 | CCOC(=O)c1c(C#N)nn(-c2c(Cl)cc(C(F)(F)F)cc2Cl)c1N | 202 °C
53 | COc1ccc(OCc2cn(C34CC5CC(CC(C5)C3)C4)nn2)cc1OC | 108 to 112 °C
54 | CCCCc1ccc(NC=O)c([N+](=O)[O-])c1 | 72 to 73 °C

Results, then the compound that gave them:

Row | melting point | Compound
55 | 60 °C | CC(C)(C)OC(=O)C1(Cl)OC1c1ccc([N+](=O)[O-])cc1 (centres undefined)
56 | 74 to 75 °C | CC1(C)CCC(C)(C)c2cc(CO)ccc21
57 | 91 to 93 °C | CNc1c(OCCN(Cc2ccccc2)C(=O)OC(C)(C)C)cccc1[N+](=O)[O-]
58 | 59.1 °C | Cl/C(=C\n1ccnc1)c1ccc(Cl)cc1Cl
59 | 60 to 70 °C | CC(COc1ccc(CC2SC(=O)NC2=O)cc1)N1CC(Cc2ccccc2)OC1=O (centres undefined)
60 | 183 °C | CCS(=O)(=O)Nc1cc(-n2nc(C(F)F)n(C)c2=S)c(F)cc1C(N)=S
61 | 117 to 119 °C | O=C(C=Cc1cccnc1)c1ccccc1OCc1ccccc1
62 | 183 °C | Cc1ccc(N2C(=O)C3=C(SCCO3)C2OC(=O)N2CCN(C)CC2)nc1 (centres undefined)
63 | 98 to 99 °C | CCOC(=O)C1(C(=O)OCC)N(c2ccccc2)C(=O)CC1(C)O (centres undefined)
64 | 62 to 64 °C | N=c1ccccn1COc1ccccc1Br
65 | 113 to 114 °C | CCOCCOCCOCC1(c2ccc(Oc3cncc4sc(-c5nnc(N)o5)cc34)cc2)CC1
66 | 116 °C | COC(=O)c1cc(O)c(O)c(S(=O)(=O)O)c1
67 | 36 to 38 °C | NC1CCN(c2cccc(Cl)n2)CC1
68 | 273 to 275 °C | Cc1nnc2n1-c1ccccc1C(c1ccc(Cl)cc1)=NN2Cc1ccc(NS(C)(=O)=O)cc1
69 | 124 to 125 °C | Oc1cc(Cl)ccc1Oc1ccccc1-c1ncon1
70 | 134 to 135 °C | O=[N+]([O-])c1ccc(Oc2ccccc2Oc2ccc([N+](=O)[O-])cc2)cc1
71 | 226 °C | CC(C)N1C(=O)C(=O)NC1=NC(=NC(=O)OC(C)(C)C)Nc1ccc(Cl)c(Cl)c1
72 | 65 to 66 °C | COc1cc(C=C2C(=O)CCc3cc(OC)c(OC)cc32)c([N+](=O)[O-])cc1OC
73 | 120 to 123 °C | CC(C)(C)[Si](C)(C)OCc1cccc(-c2ccc3nc(Cl)cn3c2)c1
74 | 190 to 191 °C | O=C(C=Cc1ccc(Cl)c(Cl)c1)C1C(=O)CCC1=O
75 | 65 to 70 °C | CC(C)C1NCC(=O)N1CC(=O)NCC(N)=O (centres undefined)
76 | 187 to 190 °C | CCOC(=O)CCCCCCn1c(=O)c(=O)[nH]c2cc(Br)ccc21
77 | 120 to 122 °C | COc1ccc(N2CCN(c3c(C)c4c(c(OC)c3C)OC(C)C4)CC2)cc1F (centres undefined)
78 | 99 to 104 °C | Cc1cc(C=O)ccc1C(=O)NCC(F)(F)F
79 | 38 to 39 °C | CCCCNC(=O)C(O[Si](C)(C)C(C)(C)C)c1ccccc1Br (centres undefined)

Row | melting point | Compound
80 | 149 to 151 °C | CCCCc1nc2c(N)nc3ccccc3c2s1
81 | 143 to 144 °C | O=C1NN(c2ccccc2)CC1CN1CCOCC1 (centres undefined)
82 | 149 °C | Cc1ccc2c(c1)[nH]c(=O)n2CCCN1CCC(C(=O)c2ccc(F)cc2)CC1
83 | 106 to 111 °C | CN(C)C(=O)c1cn(C)c(=O)cc1Nc1ccc(I)cc1F
84 | 166 to 169 °C | CS(=O)(=O)c1ccc(-c2sc(-c3ccccc3Cl)nc2-c2ccc(F)cc2F)cc1
85 | 160 to 161 °C | CCOC(=O)c1cc(=O)c2ccc(OC(=S)N(C)C)cc2o1
86 | 69.5 to 71 °C | CONS(=O)(=O)c1ccc(Cl)c([N+](=O)[O-])c1
87 | 150 °C | Cc1cc(COc2nn3c(-c4ccccc4F)nnc3cc2C2CCC2)no1
88 | 130 to 132 °C | CC(OC1CN(C(N)=O)C1)c1cccc(C(F)(F)F)c1 (centres undefined)
89 | 187 to 190 °C | O=C1Cc2cc(F)c(F)cc2N1
90 | 108 to 112 °C | CCCCCCCCCCCC(=O)OC1C(C)C(c2ccccc2)N(O)C(c2ccccc2)C1C (centres undefined)
91 | 106 °C | CCOC(=O)[C@H](C)NC(=O)CCc1cc(Cl)ccc1C(=O)CCCNC(C)=O
92 | 117 to 121 °C | Cc1cc(C)nc(N(N=O)c2ccccc2)n1
93 | 178 to 180 °C | COc1ccc2c(c1)C(C)(C)NC(=O)O2
94 | 97 to 100 °C | COCCNC(=O)c1cccc2c1C1(COc3cc4c(cc31)OCCO4)C(=O)N2C (centres undefined)
95 | 100 to 101 °C | O=Cc1ccccc1Oc1ccc(Cl)cc1[N+](=O)[O-]
96 | 71 to 72 °C | COc1ccc([N+](=O)[O-])c(C=CN2CCCC2)c1
97 | 102 to 104 °C | CCOC(=O)C1=C(C)NC(CSCCC#N)=C(C(=O)OCC)C1c1cccc([N+](=O)[O-])c1 (centres undefined)
98 | 166 to 168 °C | Nc1ccc(C(=O)N2Cc3cccn3Cc3ccccc32)cc1
99 | 272 to 275 °C | Cn1ncc(C(=O)c2ccc(S(C)(=O)=O)cc2Cl)c1O
100 | > 300 °C | Cc1ccccc1-c1c(O)c2ccccc2[nH]c1=O
101 | 162 to 163 °C | CC(=O)N(C)c1c(C(=O)C2CCCCC2)[nH]c2cc(Cl)ccc12
102 | 189 to 191 °C | CCN1OCC(=Cc2cc(C(C)(C)C)c(O)c(C(C)(C)C)c2)C1=O
103 | 280 to 282 °C | Oc1nc(Nc2ccc(O)c(Cl)c2)cc(-c2ccccc2)n1
104 | 113 to 116 °C | CCCCCCCCOc1cc(-c2cccc(Cl)c2)c(OCC(=O)O)c(-c2cccc(Cl)c2)c1
